The source of these data is ChEMBL document CHEMBL3860060, “Discovery and Optimization of 1-Phenoxy-2-aminoindanes as Potent, Selective, and Orally Bioavailable Inhibitors of the Na+/H+ Exchanger Type 3 (NHE3)” (J Med Chem, 2016).

As a reminder, the IC50 is the concentration needed to halve the response being measured. One may read the inhibition as the drop in the measured response relative to a control, in per cent.

Active and inactive are the calls of the source. The rule behind the calls is not given here.

The target in data set [1] is T1, Sodium/hydrogen exchanger 3 (Homo sapiens, UniProt P48764).
T1 sequence (P48764 whole entry): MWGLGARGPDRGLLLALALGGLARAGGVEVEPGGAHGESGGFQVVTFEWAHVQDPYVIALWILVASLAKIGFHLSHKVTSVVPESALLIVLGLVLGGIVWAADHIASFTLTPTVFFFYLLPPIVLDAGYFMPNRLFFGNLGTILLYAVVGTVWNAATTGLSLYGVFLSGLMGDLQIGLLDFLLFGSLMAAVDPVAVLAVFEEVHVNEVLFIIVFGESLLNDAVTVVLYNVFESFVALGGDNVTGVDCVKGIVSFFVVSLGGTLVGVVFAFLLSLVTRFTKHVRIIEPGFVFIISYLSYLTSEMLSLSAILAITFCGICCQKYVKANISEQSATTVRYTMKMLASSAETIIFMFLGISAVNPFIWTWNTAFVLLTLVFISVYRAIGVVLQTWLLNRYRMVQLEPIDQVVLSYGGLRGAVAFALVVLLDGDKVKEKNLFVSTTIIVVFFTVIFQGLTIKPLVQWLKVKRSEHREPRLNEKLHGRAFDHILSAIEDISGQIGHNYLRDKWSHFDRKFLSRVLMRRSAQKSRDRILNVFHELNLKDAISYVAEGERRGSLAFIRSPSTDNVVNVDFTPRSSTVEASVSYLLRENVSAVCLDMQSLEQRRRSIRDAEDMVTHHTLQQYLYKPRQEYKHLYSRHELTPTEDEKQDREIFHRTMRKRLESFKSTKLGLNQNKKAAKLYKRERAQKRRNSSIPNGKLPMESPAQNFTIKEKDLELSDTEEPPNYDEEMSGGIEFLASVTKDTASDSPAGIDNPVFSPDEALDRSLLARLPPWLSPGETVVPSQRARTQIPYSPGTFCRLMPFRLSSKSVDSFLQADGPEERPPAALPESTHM
Briefly: Inhibition of human NHE3 expressed in LAP1 cell assessed as intracellular pH recovery measured for 2 mins by CECF-AM dye based FLIPR assay.

The target in a further data set is Cytochrome P450 2D6 (Homo sapiens, UniProt P10635).
Data set [2] concerns the target T2, CYP2D6 (Homo sapiens, UniProt P10635). Briefly: Inhibition of CYP2D6 in pooled human hepatic microsomes at 10 uM using dextromethorphan substrate in presence of NADPH. The data set is classed as ADME. To be noted: pooled human liver microsomes, probe dextromethorphan. In general terms: Liver microsomes are a subcellular fraction often used to study metabolism.

A short description of data set [3]: Permeability in human Caco2/TC7 cells assessed as total flux at 20 uM incubated for 2 hrs by LC-MS/MS method. The class given is ADME, cell-based. The following applies: Caco-2, read-out: permeability. In general terms: Caco-2 monolayers are a common model of the intestinal barrier.
Data set [4] concerns the target T2, CYP2D6. Briefly: Inhibition of CYP2D6 in pooled human hepatic microsomes assessed as remaining enzyme activity at 0.225 uM using […] substrate in presence of NADPH. The following applies: pooled human liver microsomes, probe […], read-out: Activity. The class given is ADME.
The test system of data set [5] is Sus scrofa. Briefly: Inhibition of upper airway collapsibility in urethane-chloralose anesthetized pig at 3 mg/kg, id after 4 hrs. The data set is classed as functional, organism-based.
The species entered for data set [6] is Homo sapiens. Briefly: Inhibition of GABA-gated chloride channel (unknown origin) at 10 uM.
The species named for data set [7] is Homo sapiens. Briefly: Inhibition of PDE4 (unknown origin) at 10 uM.
In data set [8] the test system is Sus scrofa. Briefly: Inhibition of upper airway collapsibility in urethane-chloralose anesthetized pig at 1 mg/kg, id after 4 hrs. The data set is classed as functional, organism-based.
The target in another data set is Cytochrome P450 3A4 (Homo sapiens, UniProt P08684). Briefly: Inhibition of CYP3A4 in pooled human hepatic microsomes using testosterone substrate in presence of NADPH. The data set is classed as ADME, Liver.
Cytochrome P450 3A4, sequence (P08684 whole entry): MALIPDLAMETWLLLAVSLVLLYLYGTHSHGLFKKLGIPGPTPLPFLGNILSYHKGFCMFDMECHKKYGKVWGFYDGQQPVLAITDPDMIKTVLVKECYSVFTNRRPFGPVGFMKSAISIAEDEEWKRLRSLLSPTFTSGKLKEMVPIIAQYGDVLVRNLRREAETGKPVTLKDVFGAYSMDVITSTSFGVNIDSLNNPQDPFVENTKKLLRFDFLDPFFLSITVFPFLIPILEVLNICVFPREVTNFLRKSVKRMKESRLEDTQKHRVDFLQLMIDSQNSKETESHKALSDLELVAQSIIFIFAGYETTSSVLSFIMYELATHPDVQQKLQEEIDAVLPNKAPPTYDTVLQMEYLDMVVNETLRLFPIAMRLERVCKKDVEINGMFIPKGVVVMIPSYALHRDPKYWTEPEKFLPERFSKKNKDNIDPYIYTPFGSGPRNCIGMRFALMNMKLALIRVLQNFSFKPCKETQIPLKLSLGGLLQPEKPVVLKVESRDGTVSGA

Cytochrome P450 2D6, sequence (P10635 whole entry): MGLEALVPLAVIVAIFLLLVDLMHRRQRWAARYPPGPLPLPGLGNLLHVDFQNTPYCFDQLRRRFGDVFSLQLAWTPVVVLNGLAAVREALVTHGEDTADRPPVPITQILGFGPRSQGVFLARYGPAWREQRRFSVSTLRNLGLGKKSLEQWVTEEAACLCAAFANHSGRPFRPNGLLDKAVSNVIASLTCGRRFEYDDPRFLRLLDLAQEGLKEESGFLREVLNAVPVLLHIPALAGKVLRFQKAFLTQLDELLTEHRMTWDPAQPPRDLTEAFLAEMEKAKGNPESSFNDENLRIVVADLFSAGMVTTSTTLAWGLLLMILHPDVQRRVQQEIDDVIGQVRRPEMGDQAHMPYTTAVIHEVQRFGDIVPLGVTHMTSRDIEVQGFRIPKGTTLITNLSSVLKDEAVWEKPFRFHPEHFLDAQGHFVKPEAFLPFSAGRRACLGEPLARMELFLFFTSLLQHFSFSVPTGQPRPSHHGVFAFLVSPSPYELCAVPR
T2 sequence (P10635 whole entry): as above
Description for Cytochrome P450 2D6: Inhibition of CYP2D6 in pooled human hepatic microsomes using dextromethorphan substrate in presence of NADPH

Consider `Cc1nnc(C)n1-c1ccc(O[C@H]2c3cc(Cl)cc(Cl)c3C[C@@H]2N2CCCN(C)CC2)cc1`, for which the IC50 is 17 nM in data set [1] and above 10000 nM against Cytochrome P450 2D6. For the same compound, the inhibition at 10 µM at CYP2D6 [2] amounted to 22%. For the same compound, the Papp at 2 h, 20 µM in data set [3] is 0.2 ×10⁻⁶ cm/s.

`C=C[C@H]1C[N@@]2CC[C@H]1C[C@@H]2[C@@H](O)c1ccnc2ccc(OC)cc12` [QUINIDINE]: the activity at 0.225 µM at CYP2D6 [4] is 21%.

On to `Cc1nnc(C)n1-c1ccc(O[C@H]2c3cc(Cl)cc(Cl)c3C[C@@H]2N2CC[C@@H](O)C2)c(F)c1` [listing 1 of 2 here], for which the inhibition result with Sus scrofa [5] and in the data set on Sus scrofa [8] was “Active” each time. Further, the inhibition in the data set filed under Homo sapiens [6] was 55%; in the data set listed under Homo sapiens [7], 54%.

As for `Cc1nnc(C)n1-c1ccc(O[C@H]2c3cc(Cl)cc(Cl)c3C[C@@H]2N2CCCNCC2)cc1`, the values for the IC50 (in [1]; at Cytochrome P450 2D6) were 23 nM and above 10000 nM, respectively. On CYP2D6 [2], the inhibition at 10 µM was 25%. In data set [3], the Papp at 2 h, 20 µM came to 0.3 ×10⁻⁶ cm/s.

Consider `CS(=O)(=O)c1ccc(O[C@H]2c3cc(Cl)cc(Cl)c3C[C@@H]2N2CCNCC2)cc1`, for which the IC50 in data set [1] was 22 nM; against Cytochrome P450 2D6, below 300 nM. In addition, the Papp at 2 h, 20 µM in [3] worked out at 3 ×10⁻⁶ cm/s.

On to `Cc1nnc(C)n1-c1ccc(O[C@H]2c3cc(Cl)cc(Cl)c3C[C@@H]2N2CC[C@@H](O)C2)c(F)c1` [listing 2 of 2 here], for which the IC50 in [1] was 34 nM; against Cytochrome P450 2D6, above 10000 nM; at Cytochrome P450 3A4, above 50000 nM. For the same compound, the inhibition at 10 µM at CYP2D6 [2] was 17%. Also, the Papp at 2 h, 20 µM in data set [3] is 2.8 ×10⁻⁶ cm/s.

Take `CS(=O)(=O)c1ccc(O[C@H]2c3cc(Cl)cc(F)c3C[C@@H]2N2CCCC2)cc1` (racemic): the results for the IC50 (in data set [1]; against Cytochrome P450 2D6) were 737 nM and below 300 nM, respectively. Also, the Papp at 2 h, 20 µM in data set [3] came to 28.3 ×10⁻⁶ cm/s.

Regarding `N[C@@H]1CCCN([C@H]2Cc3c(Cl)cc(Cl)cc3[C@@H]2Oc2ccc(-n3cncn3)cc2)C1`, the values for the IC50 (in [1]; at Cytochrome P450 2D6) were 30 nM and below 300 nM, respectively. Also, in [3], the Papp at 2 h, 20 µM came out at 2.4 ×10⁻⁶ cm/s.

Take `Cc1nnc(C)n1-c1ccc(O[C@H]2c3cc(Cl)ccc3C[C@@H]2N2CC[C@@H](O)C2)c(Cl)c1`: the half-inhibitory concentration (IC50) worked out at 90 nM in data set [1] and 9500 nM against Cytochrome P450 2D6. For the same compound, the Papp at 2 h, 20 µM in [3] is 0.5 ×10⁻⁶ cm/s.

Regarding `N[C@@H]1CCCN([C@H]2Cc3ccccc3[C@@H]2Oc2ccc(S(N)(=O)=O)c(Cl)c2Cl)C1`, the figures for the half-maximal inhibitory concentration (IC50) (in data set [1]; at Cytochrome P450 2D6) were 650 nM and below 300 nM, respectively. The Papp at 2 h, 20 µM in data set [3] was 0.08 ×10⁻⁶ cm/s.

In the case of `NS(=O)(=O)c1ccc(O[C@H]2c3ccccc3C[C@@H]2N2CCCC2)c(Cl)c1Cl`, the figures for the IC50 (in [1]; at Cytochrome P450 2D6) were 123 nM and 400 nM, respectively. For the same compound, in data set [3], the Papp at 2 h, 20 µM amounted to 13.2 ×10⁻⁶ cm/s.
